Laboratory results published in patent publication US10941157B2, “Pesticidal compositions and uses thereof” (Gilead Apollo, LLC, priority 2015, dated 2021).
Values after ≈ are worked out from the molar mass of the structure shown. Read-outs that look alike come from different tables or passages of the source.

How the values were obtained:
Assay type in all cases: cell-based
[1] = tested on: Collectotrichum graminicola (Cg); assay: In vitro pathogen growth inhibition assay, Cg; settings: 48 h
How it was run: (§1)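 Value reported is the compound concentration reaching ≥90% growth inhibition, from OD readings at 24 and 48 h after blank subtraction, confirmed visually. Inoculum was spores diluted in 17% V8 medium, except Rs, using 1.5 mm mycelial plugs in ¼ PDB; actual compound concentration corrected via OD600.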

Septoria tritici (St) = assay: In vitro pathogen growth inhibition assay, St; settings: Zymoseptoria tritici, 48 h
How it was run: as §1

Botrtyis cinerea (Bc) = assay: In vitro pathogen growth inhibition assay, Bc; settings: 48 h
How it was run: as §1

Diplodia maydis (Dm) = assay: In vitro pathogen growth inhibition assay, Dm; settings: Stenocarpella maydis, 48 h
How it was run: (§2)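 Spores in 17% V8 liquid medium, or 1.5 mm Rs mycelial plugs in ¼ PDB, incubated with compound; final concentration checked by OD600 for precipitation. OD readings at 24 and 48 h, blank-subtracted, plus visual ratings; value is concentration giving ≥90% growth inhibition.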

[2] = tested on: Phytophthora capsici (Pc); assay: In vitro pathogen growth inhibition assay, Pc; settings: 48 h
How it was run: as §2

Rhizoctonia solani (Rs) = assay: In vitro pathogen growth inhibition assay, Rs (mycelial plugs); settings: Rhizoctonia solani, 48 h
How it was run: as §2

[3] = tested on: Fusarium moniliforme (Fm); assay: In vitro pathogen growth inhibition assay, Fm; settings: Fusarium verticillioides
How it was run: as §1

[4] = tested on: Fusarium virguliforme (Fv); assay: In vitro pathogen growth inhibition assay, Fv
How it was run: as §2

[5] = ≥90% growth inhibition, 48 hours, vs 2% DMSO control, read-out: Compound Concentration (ppm) sufficient for ≥90% inhibition of Cg
[6] = ≥90% growth inhibition, 48 hours, vs 2% DMSO control, read-out: Compound Concentration (ppm) sufficient for ≥90% inhibition of St
[7] = ≥90% growth inhibition, 48 hours, vs 2% DMSO control, read-out: Compound Concentration (ppm) sufficient for ≥90% inhibition of Bc
[8] = ≥90% growth inhibition, 48 hours, vs 2% DMSO control, read-out: Compound Concentration (ppm) sufficient for ≥90% inhibition of Dm
[9] = ≥90% growth inhibition, 48 hours, vs 2% DMSO control, read-out: Compound Concentration (ppm) sufficient for ≥90% inhibition of Pc
[10] = ≥90% growth inhibition, mycelial plugs, 48 hours, vs 2% DMSO control, read-out: Compound Concentration (ppm) sufficient for ≥90% inhibition of Rs
[11] = ≥90% growth inhibition, 48 hours, vs 2% DMSO control, read-out: Compound Concentration (ppm) sufficient for ≥90% inhibition of Fm
[12] = ≥90% growth inhibition, 48 hours, vs 2% DMSO control, read-out: Compound Concentration (ppm) sufficient for ≥90% inhibition of Fv
[13] = concentration sufficient to ≥90% inhibition of growth, 48 hours vs 2% DMSO control, read-out: Compound Concentration (ppm) for ≥90% inhibition, Cg
[14] = concentration sufficient to ≥90% inhibition of growth, 48 hours vs 2% DMSO control, read-out: Compound Concentration (ppm) for ≥90% inhibition, St
[15] = concentration sufficient to ≥90% inhibition of growth, 48 hours vs 2% DMSO control, read-out: Compound Concentration (ppm) for ≥90% inhibition, Bc
[16] = concentration sufficient to ≥90% inhibition of growth, 48 hours vs 2% DMSO control, read-out: Compound Concentration (ppm) for ≥90% inhibition, Dm
[17] = concentration sufficient to ≥90% inhibition of growth, 48 hours vs 2% DMSO control, read-out: Compound Concentration (ppm) for ≥90% inhibition, Pc
[18] = concentration sufficient to ≥90% inhibition of growth, 48 hours vs 2% DMSO control, read-out: Compound Concentration (ppm) for ≥90% inhibition, Rs
[19] = concentration sufficient to ≥90% inhibition of growth, 48 hours vs 2% DMSO control, read-out: Compound Concentration (ppm) for ≥90% inhibition, Fm
[20] = concentration sufficient to ≥90% inhibition of growth, 48 hours vs 2% DMSO control, read-out: Compound Concentration (ppm) for ≥90% inhibition, Fv

SMILES	IC90 [1, 5] [µg/mL]	IC90 (Septoria tritici (St); [6]) [µg/mL]	IC90 (Botrtyis cinerea (Bc); [7]) [µg/mL]	IC90 (Diplodia maydis (Dm); [8]) [µg/mL]	IC90 [2, 9] [µg/mL]	IC90 (Rhizoctonia solani (Rs); [10]) [µg/mL]	IC90 [3, 11] [µg/mL]	IC90 [4, 12] [µg/mL]	IC90 [1, 13] [µg/mL]	IC90 (Septoria tritici (St); [14]) [µg/mL]	IC90 (Botrtyis cinerea (Bc); [15]) [µg/mL]	IC90 (Diplodia maydis (Dm); [16]) [µg/mL]	IC90 [2, 17] [µg/mL]	IC90 (Rhizoctonia solani (Rs); [18]) [µg/mL]	IC90 [3, 19] [µg/mL]	IC90 [4, 20] [µg/mL]
COc1ccc(F)cc1[C@H](Cn1c(=O)n([C@@H](C)C(=O)N2CCCC2)c(=O)c2c(C)c(-n3nccn3)sc21)OCCC#N [Compound I-201]	10 (≈ 16.8 µM)	> 50	2 (≈ 3.36 µM)	≥ 2	> 50	0.08 (≈ 0.134 µM)	0.4 (≈ 0.672 µM)	≥ 0.4	–	–	–	–	–	–	–	–
COc1ccc(F)cc1[C@H](Cn1c(=O)n(C(C)(C)C(=O)N2CCCC2)c(=O)c2c(C)c(-n3cccn3)sc21)OCCC#N [Compound I-203]	–	–	–	–	–	–	–	–	50 (≈ 82.1 µM)	> 50	50 (≈ 82.1 µM)	50 (≈ 82.1 µM)	> 50	10 (≈ 16.4 µM)	10 (≈ 16.4 µM)	50 (≈ 82.1 µM)
COc1ccc(F)cc1[C@H](Cn1c(=O)n([C@@H](C)C(=O)N(C)C(C)C)c(=O)c2c(C)c(-n3nccn3)sc21)OCCC#N [Compound I-204]	10 (≈ 16.7 µM)	> 50	2 (≈ 3.35 µM)	2 (≈ 3.35 µM)	> 50	2 (≈ 3.35 µM)	0.4 (≈ 0.669 µM)	2 (≈ 3.35 µM)	–	–	–	–	–	–	–	–
CNC(=O)C(C)(C)n1c(=O)c2c(C)c(-n3nccn3)sc2n(C[C@H](OCCC#N)c2cc(F)ccc2OC)c1=O [Compound I-207]	10 (≈ 17.6 µM)	> 50	2 (≈ 3.51 µM)	≥ 2	> 50	0.08 (≈ 0.14 µM)	0.08 (≈ 0.14 µM)	2 (≈ 3.51 µM)	–	–	–	–	–	–	–	–
CNC(=O)C(C)(C)n1c(=O)c2c(C)c(-n3nccn3)sc2n(C[C@H](OCCC#N)c2ccccc2OC)c1=O [Compound I-209]	50 (≈ 90.6 µM)	> 50	2 (≈ 3.63 µM)	≥ 10	> 50	0.08 (≈ 0.145 µM)	0.08 (≈ 0.145 µM)	10 (≈ 18.1 µM)	–	–	–	–	–	–	–	–
COc1ccc(F)cc1[C@@H](O)Cn1c(=O)n(C(C)(C)C(=O)N2CCCC2)c(=O)c2c(C)c(-n3nccn3)sc21 [Compound I-214]	2 (≈ 3.59 µM)	> 50	2 (≈ 3.59 µM)	≥ 10	> 50	0.08 (≈ 0.144 µM)	0.4 (≈ 0.719 µM)	2 (≈ 3.59 µM)	–	–	–	–	–	–	–	–
COc1ccccc1[C@@H](O)Cn1c(=O)n(C(C)(C)C(=O)N2CCCC2)c(=O)c2c(C)c(-n3nccn3)sc21 [Compound I-215]	–	–	–	–	–	–	–	–	50 (≈ 92.8 µM)	> 50	10 (≈ 18.6 µM)	> 50	> 50	0.08 (≈ 0.149 µM)	10 (≈ 18.6 µM)	10 (≈ 18.6 µM)
COc1ccc(F)cc1[C@@H](O)Cn1c(=O)n([C@@H](C)C(=O)N2CCCC2)c(=O)c2c(C)c(-n3nccn3)sc21 [Compound I-218]	10 (≈ 18.4 µM)	> 50	10 (≈ 18.4 µM)	50 (≈ 92.2 µM)	≥ 50	2 (≈ 3.69 µM)	2 (≈ 3.69 µM)	2 (≈ 3.69 µM)	–	–	–	–	–	–	–	–
CCOC(=O)c1sc2c(c1C)c(=O)n([C@@H](C)C(=O)NC(C)C)c(=O)n2C[C@H](OCCC#N)c1cc(F)ccc1OC [Compound I-219]	10 (≈ 17 µM)	> 50	2 (≈ 3.4 µM)	> 10	> 50	> 50	0.4 (≈ 0.68 µM)	≥ 10	–	–	–	–	–	–	–	–
COc1ccc(F)cc1[C@@H](O)Cn1c(=O)n(C(C)(C)C(N)=O)c(=O)c2c(C)c(-n3nccn3)sc21 [Compound I-221]	–	–	–	–	–	–	–	–	50 (≈ 99.5 µM)	> 50	10 (≈ 19.9 µM)	> 50	> 50	> 50	10 (≈ 19.9 µM)	50 (≈ 99.5 µM)
COc1ccc(F)cc1[C@@H](O)Cn1c(=O)n([C@H](C)C(=O)N2CCCC2)c(=O)c2c(C)c(-n3nccn3)sc21 [Compound I-222]	2 (≈ 3.69 µM)	50 (≈ 92.2 µM)	2 (≈ 3.69 µM)	10 (≈ 18.4 µM)	> 50	0.4 (≈ 0.737 µM)	0.4 (≈ 0.737 µM)	0.4 (≈ 0.737 µM)	–	–	–	–	–	–	–	–
CCOC(=O)c1sc2c(c1C)c(=O)n(C(C)(C)C(=O)N1CCCC1)c(=O)n2C[C@H](O)c1cc(F)ccc1OC [Compound I-224]	10 (≈ 17.8 µM)	> 50	2 (≈ 3.56 µM)	> 50	> 50	0.08 (≈ 0.142 µM)	2 (≈ 3.56 µM)	2 (≈ 3.56 µM)	–	–	–	–	–	–	–	–
CCOC(=O)c1sc2c(c1C)c(=O)n([C@@H](C)C(=O)N1CCCC1)c(=O)n2C[C@H](OCCC#N)c1cc(F)ccc1OC [Compound I-225]	> 50	> 50	10 (≈ 16.6 µM)	> 10	> 50	10 (≈ 16.6 µM)	2 (≈ 3.33 µM)	≥ 50	–	–	–	–	–	–	–	–
CCOC(=O)c1sc2c(c1C)c(=O)n([C@H](C)C(=O)N1CCCC1)c(=O)n2C[C@H](OCCC#N)c1cc(F)ccc1OC [Compound I-226]	2 (≈ 3.33 µM)	> 50	2 (≈ 3.33 µM)	≥ 2	> 50	0.08 (≈ 0.133 µM)	0.08 (≈ 0.133 µM)	2 (≈ 3.33 µM)	–	–	–	–	–	–	–	–
CCOC(=O)c1sc2c(c1C)c(=O)n([C@@H](C)C(N)=O)c(=O)n2C[C@H](OCCC#N)c1cc(F)ccc1OC [Compound I-227]	–	–	–	–	–	–	–	–	> 50	> 50	50 (≈ 91.5 µM)	> 50	> 50	0.4 (≈ 0.732 µM)	10 (≈ 18.3 µM)	> 50
CCOC(=O)c1sc2c(c1C)c(=O)n([C@H](C)C(N)=O)c(=O)n2C[C@H](OCCC#N)c1cc(F)ccc1OC [Compound I-228]	–	–	–	–	–	–	–	–	> 50	> 50	10 (≈ 18.3 µM)	> 50	> 50	2 (≈ 3.66 µM)	10 (≈ 18.3 µM)	> 50
CCOC(=O)c1sc2c(c1C)c(=O)n([C@@H](C)C(=O)N(C)C(C)C)c(=O)n2C[C@H](OCCC#N)c1cc(F)ccc1OC [Compound I-230]	10 (≈ 16.6 µM)	≥ 10	2 (≈ 3.32 µM)	≥ 10	> 50	0.08 (≈ 0.133 µM)	0.4 (≈ 0.664 µM)	0.4 (≈ 0.664 µM)	–	–	–	–	–	–	–	–
